From article PMC8638259 (Biochemistry, 2021)
Where “and” joins values, the source holds several entries; their conditions need not be identical. Equal values may be shown once. Entries after “also recorded” stand apart in the source; their conditions may differ. Read-outs that look alike come from different tables or passages of the source. Marks after values point to notes of the source that are not given here. Blank lines part the entries; values can stand above or below the compound they belong to.

Experiments:
[1] = system: T1, Mat2A; conditions: cited from earlier work
T1 construct: His6 (N, cleaved yes); TEV protease cleavage site (N, cleaved yes); made in house; host or cells: E. coli BL21 STAR (DE3)

[2] = system: T1, Mat2A; assay: Stability assay: Mat2A activity after preincubation at 37 °C; format: biochemical, human
[3] = target: T2, human Mat2A (Homo sapiens, UniProt P31153); assay: LC-MS SAM detection assay (assay 2), Mat2A initial rates; format: biochemical; parameters: key to type of inhibition (product inhibition by phosphate): U indicates uncompetitive inhibition; NC indicates noncompetitive inhibition; conditions: pH 7.5, 22 °C; for Ki: read-out: inhibition constant Kis (product inhibition by phosphate); for Km: Mat2A only, single experiment, three replicates ± SE
T2 construct: His6 (N, cleaved yes); TEV protease cleavage site (N, cleaved yes); made in house; host or cells: E. coli BL21 STAR (DE3)
Text: In all cases, initial velocities were obtained from the linear regions of the reaction progress curves (<200 s, Figures S3C and S5).
The LC–MS assay monitors SAM directly and was developed to confirm the kinetic parameters that were obtained in the phosphate coupled assay and to carry out product inhibition studies by Pi, which was not possible using the phosphate coupled assay. The amount of SAM produced was quantified using a standard curve (Figure S3F). Prior to LC–MS, 1:1 methanol/acetonitrile + 0.1% (v/v) formic acid was added to the samples. LC–MS was performed using an Agilent 1200 LC system fitted with a Cogent Diamond Hydride Type C silica column (2.1 × 150 mm, dead volume 315 μL). Solvent A was LC–MS grade H2O + 0.1% (v/v) formic acid. Solvent B was acetonitrile + 0.1% (v/v) formic acid. The gradient started at 85% B dropping to 5% B over 14 min. Flow rate was 0.4 mL/min. Mass spectrometry was performed using an Agilent Accurate Mass 6230 TOF apparatus in positive-ion mode. The doubly charged SAM ion was detected at an m/z of 200.0759.
Product and dead-end inhibition data showing competitive, noncompetitive, or uncompetitive patterns were fitted to eqs 2–4, respectively. [drawing 2] 2 [drawing 3] 3 [drawing 4] 4 where I is the inhibitor concentration; S is the concentration of the variable substrate; Km is the Michaelis constant for the variable substrate; and Kis and Kii are the slope and intercept inhibition constants, respectively.
Saturation kinetics data were fitted to eq 5. [drawing 5] 5

[4] = target: T3, Mat2A/Mat2B complex (Homo sapiens, UniProt P31153); assay: Kinetic constants of Mat2A/Mat2B complex after preincubation at 37 °C; format: biochemical; conditions: 60 nM Mat2A + 30 nM Mat2B preincubated 15 min at 37 °C; assay at pH 7.5, 22 °C; ATP 1.25 mM; read-out: Km(L-Met)
T3 construct: His6 (N, cleaved yes); TEV protease cleavage site (N, cleaved yes); made in house; host or cells: E. coli BL21 STAR (DE3)

[5] = target: T2, human Mat2A; assay: Isothermal titration calorimetry (ITC) binding to Mat2A; conditions: for binding to Mat2A (ITC): in the absence of ATP
Protocol: Prior to performing ITC, proteins (approximately 1 mL volume) were dialyzed using D-Tube Dialyzers (Maxi 100–3000 μL, MWCO 6–8 kDa) (Novagen) against 1 L of buffer A for 2–4 h at 4 °C with agitation using a magnetic stirring bar. […] Titrations were performed at 20 °C. Protein concentrations were determined by A280 using a UV-2550 spectrophotometer. The protein and ligand concentrations that were used are indicated in the legends of Figures 5 and 6. ITC measurements were performed on a MicroCal PEAQ-ITC calorimeter (Malvern Panalytical). Data were analyzed using the MicroCal PEAQ-ITC analysis software supplied by the manufacturer using nonlinear regression with the One Set of Sites model. For each experiment, the heat produced or consumed associated with ligand dilution was measured and subtracted from the raw data.

[6] = system: Mat2A + Mat2B; parameters: method as in PMID 28553945; conditions: after addition of Mat2B, cited from earlier work
[7] = target: T2, human Mat2A; assay: MESG EnzChek coupled phosphate detection assay (assay 1), Mat2A initial rates; format: biochemical; parameters: key to type of inhibition (product inhibition) / inhibition pattern (dead-end inhibition): U indicates uncompetitive inhibition; NC indicates noncompetitive inhibition; conditions: for Km: average of five independent experiments ± SD
[8] = target: T3, Mat2A/Mat2B complex; assay: Coupled phosphate detection assay (assay 1) with the Mat2A/Mat2B complex; format: biochemical; conditions: for Km: Mat2A + Mat2B (250 nM Mat2A, 600 nM Mat2B), pH 7.5, 22 °C
[9] = target: Mat2B (Homo sapiens) (UniProt Q9NZL9); conditions: cited from earlier work
[10] = variable substrate ATP, saturating L-Met 0.6 mM
[11] = variable substrate L-Met, saturating ATP 0.5 or 1 mM
[12] = saturating Mat2B, ATP varied, saturating L-Met 600 μM

Compound: Mat2A: recombinant full-length human methionine adenosyltransferase Mat2A (UniProt P31153)
kcat reported by other groups ([1]; different assay methods): 0.27 s^–1 and 0.35 s^–1
time to 50% loss of activity ([2]; 60 nM Mat2A preincubated in assay buffer at 37 °C, no substrates, no Mat2B): 2.3 min
kcat ([2]; Mat2A only (60 nM) preincubated 15 min at 37 °C, assay at pH 7.5, 22 °C): 0.09 ± 0.005 ^b s^–1

inhibition constant Kii (product inhibition by phosphate) [3, 10]: Kii = 5740 ± 760 ^b μM
type of inhibition (product inhibition by phosphate) [3, 10]: NC ^b
Ki [3, 10]: 1290 µM
inhibition constant Kii (product inhibition by phosphate) [3, 11]: Kii = 4970 ± 770 ^b μM
type of inhibition (product inhibition by phosphate) [3, 11]: NC ^b
Ki [3, 11]: 1580 µM
Compound: O=P(O)(O)O [phosphate, inorganic phosphate]

Km [4]: 3.9 ± 0.1 µM
Km ([3]; read-out: Km(L-Met)): 8 ± 2 µM
Km ([7]; Mat2A only, pH 7.5, 22 °C, read-out: Km(L-Met)): 5 ± 2 µM
Km ([8]; read-out: Km(L-Met)): 4 ± 1 µM
Km ([2]; Mat2A only (60 nM) preincubated 15 min at 37 °C, assay at pH 7.5, 22 °C, ATP 1.25 mM, read-out: Km(L-Met)): 3.5 ± 1.3 µM
Compound: CSCC[C@H](N)C(=O)O [L-Met, L-methionine]
binding to Mat2A (ITC) ([5]; ITC, 20 °C): No significant change in heat; also recorded: No binding
Km ([6]; read-out: Km for L-Met): 2.5 µM
Km ([1]; without Mat2B, read-out: Km for L-Met): 14 µM

Compound: Mat1A (from UniProt Q00266)
Kd [9]: 3 µM

Compound: NC1(C(=O)O)CCCC1 [L-cLeu, L-cycloleucine, reference compound]
binding to Mat2A (ITC) ([5]; ITC, 20 °C): no significant change in heat
binding to Mat2A (ITC) ([5]; ITC, 20 °C, listed as Cycloleucine): No binding
Kd ([5]; ITC, 20 °C, in the presence of 2 mM ATP): 25 ± 10 µM
extent of inhibition of Mat2A [7]: fully inhibit
substrate activity for Mat2A [7]: not a substrate
inhibition pattern (dead-end inhibition) ([7]; variable substrate ATP, nonsaturating L-Met = 0.02 mM, pH 7.5, 22 °C): U
Ki ([7]; variable substrate L-Met, nonsaturating ATP = 0.07 mM, pH 7.5, 22 °C, read-out: inhibition constant Kis (dead-end inhibition)): 160 µM
Ki ([7]; variable substrate L-Met, saturating ATP = 1 mM, pH 7.5, 22 °C, read-out: inhibition constant Kis (dead-end inhibition)): 290 µM

Kd [5]: 80 ± 30 µM
Km ([3]; read-out: Km(ATP)): 55 ± 10 µM
Ki ([7]; Mat2A only, dissociation constant of enzyme-ATP complex from eq 1, pH 7.5, 22 °C, read-out: Ki(ATP)): 349 ± 66 µM
Km ([7]; Mat2A only, pH 7.5, 22 °C, read-out: Km(ATP)): 50 ± 10 µM
Km ([8]; read-out: Km(ATP)): 50 ± 5 µM
Compound: Nc1ncnc2c1ncn2[C@@H]1O[C@H](COP(=O)(O)OP(=O)(O)OP(=O)(O)O)[C@@H](O)[C@H]1O [ATP, adenosine 5′-triphosphate]

type of inhibition (product inhibition) ([7]; variable substrate ATP, nonsaturating L-Met (0.02 mM), pH 7.5, 22 °C): NC ^c
Ki ([7]; variable substrate ATP, nonsaturating L-Met (0.02 mM), pH 7.5, 22 °C, read-out: inhibition constant Kis (product inhibition)): 620 µM
type of inhibition (product inhibition) ([7]; variable substrate ATP, saturating L-Met 0.6 mM, pH 7.5, 22 °C): U ^b
type of inhibition (product inhibition) ([7]; variable substrate L-Met, nonsaturating ATP (0.07 mM), pH 7.5, 22 °C): NC ^c
Ki ([7]; variable substrate L-Met, nonsaturating ATP (0.07 mM), pH 7.5, 22 °C, read-out: inhibition constant Kis (product inhibition)): 250 µM
type of inhibition (product inhibition) ([7]; variable substrate L-Met, saturating ATP 0.5 or 1 mM, pH 7.5, 22 °C): NC ^b
Ki ([7]; variable substrate L-Met, saturating ATP 0.5 or 1 mM, pH 7.5, 22 °C, read-out: inhibition constant Kis (product inhibition)): 190 µM
Kii(SAM) [8, 12]: 130 ± 40 µM
type of inhibition by SAM [8, 12]: uncompetitive
increase in the potency of SAM inhibition in the presence of Mat2B ([8]; versus Mat2A alone): 1.8 fold
Compound: C[S+](CC[C@H](N)C(=O)[O-])C[C@H]1O[C@@H](n2cnc3c(N)ncnc32)[C@H](O)[C@@H]1O (stereo partly drawn) [SAM, S-adenosyl-L-methionine]
IC50 ([6]; read-out: IC50 of product inhibition by SAM): ~150 µM
IC50 ([1]; without Mat2B, read-out: IC50 of product inhibition by SAM): ~300 µM
